# Assay results reported in patent publication US8048862B2, “Macrocyclic inhibitors of hepatitis C virus replication” (priority 2008, dated 2011).
# How the values were obtained:
# [1] = tested on: hepatitis C virus (HCV RNA levels), chronic hepatitis C genotype 1; assay: ITMN-191 combination therapy with SOC (PEG-IFN alfa-2a and ribavirin), 14 days, effect on HCV viral load in patients; format: in vivo; conditions: for HCV RNA (<43 IU/mL) (%): after 14 days of treatment; for median change in HCV RNA from baseline: 14 days of triple combination therapy
# Description: This is a double-blind, placebo-controlled, multicenter study in treatment-naïve patients with chronic hepatitis C genotype 1 infection. All patients receive standard of care (SOC) treatment with PEG-IFN alfa-2a and weight-based ribavirin in accordance with the product labeling. In addition to this standard of care treatment, patients are randomized to receive either ITMN-191 or matching placebo, administered in the fed state, for 14 complete days, and a single dose on Day 15. PEG-IFN alfa-2a and ribavirin is provided from Day 0 and following the completion of study drug treatment on Day 15 through Day 44. No other HCV therapies are permitted prior to Day 44. All patients receive SOC and then are administered a pill containing either ITMN-191 or placebo. The ITMN-191 was administered in the form of its sodium salt.
# Patients are admitted to a research facility and initiate PEG-IFN alfa-2a and ribavirin on Day O, Study drug (ITMN-191 or placebo) administration begins on Day 1 and continues to the morning of Day 15, and patients are discharged from the research facility on Day 16. Meals and activity levels are standardized across research facilities. Patients are contacted by telephone on Day 21 and return to the research facility for the Safety Follow-up Visit on Day 28 and the End of Study Visit on Day 44.
# Over the course of the study, blood samples are obtained for clinical laboratory analysis and for PK (pharmokinetics) and VK (viral kinetics). In addition, blood samples to assess VR (viral rebound) are obtained. To monitor potential cardiac toxicity, cardiac troponin are assessed every day during the treatment period.
# End of treatment (EOT) and nadir HCV RNA levels were used to define virologic rebound, continual decline, and plateau response patterns. NS3 protease domain was amplified and population sequenced by nested reverse transcription polymerase chain reaction (RT-PCR). Amplicons were cloned into a novel NS3 phenotyping vector and this plasmid used for clonal sequencing. The HCV RNA levels were determined by Roche COBAS Taqman HCV/HPS test, v2.0. This is a reverse transcriptase PCR method.
# [2] = tested on: hepatitis C virus (HCV RNA levels), chronic hepatitis C genotype 1; assay: ITMN-191 monotherapy, 14 days, effect on HCV viral load in patients; format: in vivo; conditions: for median reduction in HCV RNA levels at end of treatment (EOT) (Day 14): sodium salt oral
# Protocol: The study was designed to provide the plasma pharmacokinetics (PK) of multiple ascending daily oral doses of ITMN-191 monotherapy and to evaluate the viral kinetics (VK) of multiple ascending daily oral doses of ITMN-191 monotherapy in patients, as measured by changes from Baseline in hepatitis C virus ribonucleic acid (HCV RNA) levels. The ITMN-191 was administered in the form of its sodium salt.
# In Part A and Part B, up to six cohorts (treatment arms) of 10 patients each were planned. In Part A, up to five cohorts of 10 treatment-naïve patients per cohort were planned to receive multiple ascending doses of study drug. Patients within each of the five cohorts were randomly assigned 8:2 to receive either ITMN-191 or placebo for 14 days. In Part B, one cohort of non-responder (NR) patients (Cohort 6) was planned to receive a single dose level of study drug for 14 days. Patients in Cohort 6 were randomly assigned 8:2 to receive either ITMN-191 (8 patients) or placebo (2 patients).
# The treatment period consisted of 14 days of blinded study drug. In Part A, optional Standard of Care (SOC) consisting of PEG-IFN-α plus ribivarin (RBV) therapy was provided to treatment-naïve patients 24 hours after the last dose on Day 14. In Part B, NR patients were not permitted to start any additional HCV therapy before Day 44.
# Efficacy was evaluated by log10 reductions in HCV RNA levels and reductions in ALT values using the Efficacy-Evaluable Population, defined as those patients who received at least 90% of prescribed doses of assigned blinded study drug. Three patients in the treatment-naive 200 mg q12h cohort received less than the assigned randomized dose and were excluded from all efficacy analyses. The HCV RNA levels were determined by Roche COBAS Taqman HCV/HPS test, v2.0. This is a reverse transcriptase PCR method.
# In Parts A and B, rebound, plateau, and continuous decline of virologic response profiles were defined based on the HCV RNA level at end of treatment (EOT) relative to the nadir HCV RNA level. […] The frequency of rebound for treatment-naïve patients (Part A) was higher in the 100 mg […] treatment arm (4 patients) than in the higher dose treatment arms (2 to 3 patients). The frequency of rebound for NR patients (Part B) was the same (2 patients) as for the treatment-naïve patients in the 100 mg q8h treatment arm. However, there were no statistically significant differences in ITMN-191 AUC, Cmax, or Cτ between rebound, plateau, and continual decline groups. At EOT, every patient classified as experiencing virologic rebound carried NS3 variants in which arginine at amino acid position 155 was replaced, at least in part, by lysine.
# [3] = any combination therapy cohort, 14 days
# [4] = NR (nonresponder) patients, 300 mg q8h, 14 days
# [5] = all ITMN-191 treated patients, Parts A and B, monotherapy 14 days
# [6] = treatment-naïve patients, 200 mg q8h, 14 days
# [7] = treatment-naïve patients, 200 mg q12h, 14 days
smiles,measurement,setting,value
CC(C)(C)OC(=O)N[C@H]1CCCCC/C=C\[C@@H]2C[C@@]2(C(=O)NS(=O)(=O)C2CC2)NC(=O)[C@@H]2C[C@@H](OC(=O)N3Cc4cccc(F)c4C3)CN2C1=O [ITMN-191],HCV RNA (<43 IU/mL) (%),[1]; 100 mg q8h (300 mg) and SOC,75%
same,Median Change Log10 (IU/mL) HCV RNA at EOT,"[1]; 100 mg q8h (300 mg) in combination with SOC, 14 days",−5.5 Log10 (IU/mL)
same,HCV RNA (<43 IU/mL) (%),[1]; 200 mg q8h (600 mg) and SOC,88%
same,Median Change Log10 (IU/mL) HCV RNA at EOT,"[1]; 200 mg q8h (600 mg) in combination with SOC, 14 days",−5.7 Log10 (IU/mL)
same,Median Change Log10 (IU/mL) HCV RNA at EOT,"[1]; 300 mg q8h (900 mg) in combination with SOC, 14 days",−5.6 Log10 (IU/mL)
same,Median Change Log10 (IU/mL) HCV RNA at EOT,"[1]; 400 mg q12h (800 mg) in combination with SOC, 14 days",−4.7 Log10 (IU/mL)
same,Median Change Log10 (IU/mL) HCV RNA at EOT,"[1]; 600 mg q12h (1200 mg) in combination with SOC, 14 days",−5.4 Log10 (IU/mL)
same,Median Change Log10 (IU/mL) HCV RNA at EOT,"[1]; 900 mg q12h (1800 mg) in combination with SOC, 14 days",−5.5 Log10 (IU/mL)
same,patients with HCV RNA below the limit of quantification (<25 IU/mL),"[1]; all doses and intervals (32 of 45 patients), combination with SOC, 14 days",71%
same,patients with HCV RNA levels below 9.3 IU/mL,[1]; [3],at least 13%
same,patients with HCV RNA levels below 25 IU/mL,[1]; [3],at least 57%
same,median change in HCV RNA from baseline,[1]; best performing q8h cohort,−5.7 log
same,median change in HCV RNA from baseline,[1]; best performing q12h cohort,−5.5 log
same,median change in HCV RNA from baseline,[1]; five of the six cohorts,exceeded 5 logs
same,median ALT decline from Baseline at EOT,[2]; [4],−34.5 U/L
same,median maximum reduction in HCV RNA levels,[2]; [4],−2.93 log10 IU/mL
same,median reduction in HCV RNA at EOT,[2]; [4],−2.46 log10 IU/mL
same,frequency of rebound,[2]; NR patients (Part B),2 patients
same,patients experiencing continual decline in HCV RNA level,[2]; [5],14/40
same,patients experiencing plateau,[2]; [5],12/40
same,median maximum post-Baseline change in HCV RNA,"[2]; single NR cohort (Part B), 300 mg q12h dose as printed in the conclusions",−2.93 log10 IU/mL
same,frequency of rebound,"[2]; treatment-naïve patients, 100 mg q2h treatment arm",4 patients
same,frequency of rebound,"[2]; treatment-naïve patients, 100 mg q8h treatment arm",2 patients
same,median EOT reduction of ALT,[2]; [6],−37.5 U/L
same,median maximum reduction in HCV RNA levels,[2]; [6],−3.90 log10 IU/mL
same,median reduction in HCV RNA levels at end of treatment (EOT) (Day 14),[2]; [6],−3.76 log10 IU/mL
same,median maximum reduction in HCV RNA levels,[2]; [7],−3.17 log10 IU/mL
same,median reduction in HCV RNA levels at end of treatment (EOT) (Day 14),[2]; [7],−3.12 log10 IU/mL
